Activity calls are given as the source filed them. No rule for the calls is given here.
Legend:
[1] = target: Hypoxia-inducible factor 1-alpha (Homo sapiens) (UniProt Q16665); experiment: potency against HIF reporters across cell lines – luminescence, panel, selectivity assay for HIF-2a inhibitor project, dose response (AID 651581); details: human cell HIF reporter, HIF-1a
[2] = target: Endothelial PAS domain-containing protein 1 (Homo sapiens) (UniProt Q99814); experiment: as above; details: human cell HIF reporter

Sequence of Hypoxia-inducible factor 1-alpha (Homo sapiens) (Q16665 whole entry, looked up, the tested form may be a part): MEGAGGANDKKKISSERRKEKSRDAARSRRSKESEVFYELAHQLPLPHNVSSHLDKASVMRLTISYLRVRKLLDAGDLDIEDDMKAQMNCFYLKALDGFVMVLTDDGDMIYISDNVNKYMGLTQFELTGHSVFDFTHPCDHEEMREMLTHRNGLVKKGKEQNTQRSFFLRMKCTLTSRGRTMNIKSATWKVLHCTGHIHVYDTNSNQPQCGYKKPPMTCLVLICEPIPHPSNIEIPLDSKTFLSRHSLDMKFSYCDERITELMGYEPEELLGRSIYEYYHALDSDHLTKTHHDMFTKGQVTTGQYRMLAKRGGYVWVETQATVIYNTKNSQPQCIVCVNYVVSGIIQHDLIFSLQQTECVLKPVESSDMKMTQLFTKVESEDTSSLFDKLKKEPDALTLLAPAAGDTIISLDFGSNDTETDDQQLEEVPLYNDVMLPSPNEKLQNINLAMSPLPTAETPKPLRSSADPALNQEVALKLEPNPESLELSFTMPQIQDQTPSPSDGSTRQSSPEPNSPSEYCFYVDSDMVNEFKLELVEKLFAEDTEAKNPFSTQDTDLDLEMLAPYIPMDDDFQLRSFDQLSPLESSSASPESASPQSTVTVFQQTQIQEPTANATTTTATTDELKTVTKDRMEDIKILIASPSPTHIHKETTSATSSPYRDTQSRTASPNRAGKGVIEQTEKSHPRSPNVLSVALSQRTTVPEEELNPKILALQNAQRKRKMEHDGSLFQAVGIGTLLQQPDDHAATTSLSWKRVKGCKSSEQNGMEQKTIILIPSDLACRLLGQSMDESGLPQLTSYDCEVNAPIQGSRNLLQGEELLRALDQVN

| Compound | IC50 ([1]; run 1) | IC50 ([1]; run 2) | IC50 ([2]; HIF-2a PANC, mean of runs) | IC50 ([2]; HIF-2a PANC, run 1) | IC50 ([2]; HIF-2a PANC, run 2) | IC50 ([2]; HIF-2a, mean of runs) | IC50 ([2]; HIF-2a, run 1) | IC50 ([2]; HIF-2a, run 2) | IC50 ([1]; mean of runs) |
| --- | --- | --- | --- | --- | --- | --- | --- | --- | --- |
| Nc1ccc2oc(-c3cc(Br)ccc3Cl)nc2c1 | 69.1 µM | > 99 µM | 0.506 µM | 0.52 µM | 0.492 µM | 1.1 µM | 1.08 µM | 1.13 µM |  |
| COc1ccc(CNC(=O)CCc2c(C)nc3cc(-c4ccccc4OC)nn3c2C)cc1 | 26.8 µM | 6.7 µM |  | > 99 µM | 11.8 µM | 9.3 µM | 10.1 µM | 8.49 µM | inactive |
| O=C(NNc1nc2ccccc2o1)c1ccccc1 | 46.1 µM | > 99 µM | > 99 µM (inactive) | > 99 µM | > 99 µM | 6.37 µM | 6.68 µM | 6.06 µM |  |
| O=C(O)c1cccc(CSc2nnc(-c3ccc(Cl)cc3)o2)c1 | > 99 µM | > 99 µM | 2.81 µM | 3.03 µM | 2.6 µM | 1.97 µM | 1.87 µM | 2.07 µM |  |
| CCOC(=O)C1CCN(Cc2cc(=O)oc3c(C)c(C)ccc23)CC1 | 31.7 µM | 25.9 µM | 14.2 µM | 19.7 µM | 8.77 µM | 7.52 µM | 7.96 µM | 7.07 µM | 28.8 µM |
| O=C(O)c1cccc(COc2ccccc2Cl)c1 | 17.8 µM | 24.6 µM |  | 21.1 µM | > 99 µM | 2.58 µM | 2.52 µM | 2.65 µM | 21.2 µM |
| O=C(O)c1ccc(N/N=C/c2ccc3ncccc3c2)cc1 | 18.8 µM | 16.8 µM |  | > 99 µM | 19.3 µM |  | < 30 µM | > 99 µM | inactive |
| COc1cc(OC)cc(-c2nnc(Nc3nc4c(F)cccc4s3)o2)c1 | > 99 µM | > 99 µM | 6.26 µM | 7.31 µM | 5.21 µM | 3.15 µM | 4.09 µM | 2.2 µM |  |
| CC(=O)Nc1ccc(OC(=O)N2CCCCC2)cc1 | 11.5 µM | 11.2 µM | 2.8 µM | 1.96 µM | 3.65 µM | 2.33 µM | 2.32 µM | 2.34 µM | 11.4 µM |
| O=C(O)COc1ccc2oc3ccccc3c2c1 | 27.8 µM | 59 µM | inactive | 75.3 µM | 20.5 µM | inactive | 13.1 µM | 12.7 µM | 43.4 µM |
| C/C(=N\NC(=O)c1n[nH]c2c1CCC2)c1cccs1 | 13.7 µM | 11.6 µM | inactive | 27.1 µM | 15.3 µM | 4.55 µM | 4.42 µM | 4.68 µM | inactive |
| CCC(=O)Nc1cccc(C(=O)c2ccc(C)c(C)c2)c1 | > 99 µM | 38.7 µM |  | > 99 µM | > 99 µM |  | > 99 µM | 1.57 µM |  |
| CCOC(=O)c1sc(NC(=O)c2cc3c(s2)CCC(C)C3)nc1C (centres undefined) | 20.5 µM | > 99 µM |  | < 1 µM | > 99 µM |  | 0.2 µM | > 99 µM |  |
| Cc1c(CCC(=O)O)c(=O)oc2cc(OCc3ccccc3Br)ccc12 | 8.16 µM | 20.8 µM | 5.79 µM | 2.48 µM | 9.09 µM | 6.3 µM | 6.05 µM | 6.54 µM | inactive |
| COc1cc(/C=C/[N+](=O)[O-])ccc1O | 25.2 µM | 28.3 µM | > 99 µM (inactive) | > 99 µM | > 99 µM | inactive | 11.7 µM | 10.3 µM | inactive |
| Cc1ccc(NC(=O)c2cc(N3C(=O)C=CC3=O)ccc2N2CCOCC2)cc1Cl | 60.4 µM | 39.3 µM |  | 76.3 µM | > 99 µM | 5.36 µM | 5.12 µM | 5.61 µM | 49.8 µM |
| CC(C)(C)c1ccc(-c2noc(CCC(N)=O)n2)cc1 | > 99 µM | > 99 µM | < 0.3 µM | < 1 µM | < 0.3 µM | < 0.3 µM | < 0.3 µM | < 0.3 µM |  |
| CCOC(=O)c1ccc(Oc2nc(NC(C)(C)C)nc(N(C)C)n2)cc1 | 21.8 µM | 31.4 µM | inactive | 20.7 µM | 51.9 µM | inactive | 8.84 µM | 11.9 µM | inactive |

| Compound | IC50 ([1]; run 1) | IC50 ([1]; run 2) | IC50 ([2]; HIF-2a PANC, mean of runs) | IC50 ([2]; HIF-2a PANC, run 1) | IC50 ([2]; HIF-2a PANC, run 2) | IC50 ([2]; HIF-2a, mean of runs) | IC50 ([2]; HIF-2a, run 1) | IC50 ([2]; HIF-2a, run 2) | IC50 ([1]; mean of runs) |
| --- | --- | --- | --- | --- | --- | --- | --- | --- | --- |
| Cc1ccc(C)c(S(=O)(=O)ON2C(=O)c3ccccc3C2=O)c1 | > 99 µM | > 99 µM | > 99 µM (inactive) | > 99 µM | > 99 µM | 8.46 µM | 8.53 µM | 8.39 µM |  |
| COc1cccc(NC(=O)c2nc(S(C)(=O)=O)ncc2Cl)c1 | 14.7 µM | 28.2 µM | inactive | 32.4 µM | 89.6 µM | inactive | 12.2 µM | 11.3 µM | inactive |
| CCCCOC(=O)c1ccc(NC(=S)NC(=O)c2c(Br)c(C)nn2C)cc1 | > 99 µM | > 99 µM | inactive | 8.11 µM | 16.2 µM | 0.894 µM | 0.821 µM | 0.968 µM |  |
| CC(=O)Nc1ccc(Oc2sc(C(=O)c3ccccc3)c(N)c2C#N)cc1 | 27.7 µM | 28.5 µM | inactive | 47.2 µM | 65.4 µM | inactive | 17.5 µM | 10.9 µM | inactive |
| CSc1ccc(/C=N/Nc2cccc(C(=O)O)c2)cc1 | > 99 µM | > 99 µM | > 99 µM (inactive) | > 99 µM | > 99 µM | 5.33 µM | 5.25 µM | 5.4 µM |  |
| C=CS(=O)(=O)c1sc(Cl)c(N2CCOCC2)c1[N+](=O)[O-] | 47.5 µM | > 99 µM |  | > 99 µM | 15.5 µM | 8.96 µM | 9.47 µM | 8.45 µM |  |
| CC(=O)N(C(C)=O)c1ccc(Oc2ccc(Oc3ccc(N(C(C)=O)C(C)=O)cc3)cc2)cc1 | 12.2 µM | 20.3 µM | 1.51 µM | 1.86 µM | 1.15 µM |  | > 99 µM | 1.58 µM | inactive |
| N#Cc1c(NC(=O)CSc2ncn[nH]2)sc2c1CCCCC2 | > 99 µM | 1.47 µM | < 0.19 µM | < 0.19 µM | < 10 µM | < 0.3 µM | < 0.3 µM | < 0.3 µM |  |
| CCOC(=O)C1CCN(C(=O)CCc2c(C)nc3cc(-c4ccccc4)nn3c2C)CC1 | 12.6 µM | 6.98 µM | 2.16 µM | 1.83 µM | 2.48 µM | 1.39 µM | 1.51 µM | 1.27 µM | 9.79 µM |
| Cc1cc(C)cc(C(=O)NC(=S)Nc2ccc(-c3cc4ccccc4oc3=O)cc2)c1 | > 99 µM | > 99 µM |  | > 99 µM | > 99 µM | > 99 µM (inactive) | > 99 µM | > 99 µM | > 99 µM (inactive) |
| O=C(Nc1sc2c(c1C(=O)O)CCC2)c1ccccc1Cl | 85.7 µM | > 99 µM |  | > 99 µM | 50.5 µM | > 99 µM (inactive) | > 99 µM | > 99 µM |  |
| Cc1cccc(NC(=S)NNc2ncc(C(F)(F)F)cc2Cl)c1 | 33.1 µM | 27.1 µM | 2.01 µM | 2.31 µM | 1.71 µM | 8.98 µM | 8.85 µM | 9.11 µM | 30.1 µM |
| c1c2c(cc3sc(N4CCOCC4)nc13)OCCO2 | 11.3 µM | 18 µM | 17.2 µM | 20 µM | 14.4 µM | < 30 µM (inactive) | < 30 µM | < 30 µM | inactive |
| COc1ccccc1C(C[N+](=O)[O-])c1c(N)n(C)c(=O)n(C)c1=O (centres undefined) | 20.9 µM | 16.9 µM |  | > 99 µM | 51.9 µM | 9.86 µM | 10.2 µM | 9.56 µM | inactive |
| COc1cccc(/C=N/Nc2ncccc2[N+](=O)[O-])c1OC | 20.3 µM | 20.1 µM | 21.8 µM | 22 µM | 21.6 µM |  | 8.21 µM | < 30 µM | inactive |
| O=C(CCCc1ccccc1)Nc1cccc(C(=O)O)c1 | > 99 µM | > 99 µM | > 99 µM (inactive) | > 99 µM | > 99 µM | inactive | 17 µM | 14.5 µM |  |
| COc1ccc(/C=C2\SC(=O)N(CCNC(=O)Cn3[nH]c(=O)c4ccccc4c3=O)C2=O)cc1 | 7.03 µM | 17.2 µM | 7.76 µM | 8.52 µM | 7.01 µM | inactive | 12 µM | 13.1 µM | inactive |
| CS(=O)(=O)c1ccc(-c2cn3cc(C(=O)O)ccc3n2)cc1 | > 99 µM | > 99 µM |  | 86.7 µM | > 99 µM | inactive | 28.8 µM | 47.2 µM | > 99 µM (inactive) |
